The results in this text go back to paper PMC3669624 (Molecular Cancer, 2013).

Series [1] concerns the target T1, BCRP (Homo sapiens, UniProt Q9UNQ0).
T1 sequence (Q9UNQ0 1-655): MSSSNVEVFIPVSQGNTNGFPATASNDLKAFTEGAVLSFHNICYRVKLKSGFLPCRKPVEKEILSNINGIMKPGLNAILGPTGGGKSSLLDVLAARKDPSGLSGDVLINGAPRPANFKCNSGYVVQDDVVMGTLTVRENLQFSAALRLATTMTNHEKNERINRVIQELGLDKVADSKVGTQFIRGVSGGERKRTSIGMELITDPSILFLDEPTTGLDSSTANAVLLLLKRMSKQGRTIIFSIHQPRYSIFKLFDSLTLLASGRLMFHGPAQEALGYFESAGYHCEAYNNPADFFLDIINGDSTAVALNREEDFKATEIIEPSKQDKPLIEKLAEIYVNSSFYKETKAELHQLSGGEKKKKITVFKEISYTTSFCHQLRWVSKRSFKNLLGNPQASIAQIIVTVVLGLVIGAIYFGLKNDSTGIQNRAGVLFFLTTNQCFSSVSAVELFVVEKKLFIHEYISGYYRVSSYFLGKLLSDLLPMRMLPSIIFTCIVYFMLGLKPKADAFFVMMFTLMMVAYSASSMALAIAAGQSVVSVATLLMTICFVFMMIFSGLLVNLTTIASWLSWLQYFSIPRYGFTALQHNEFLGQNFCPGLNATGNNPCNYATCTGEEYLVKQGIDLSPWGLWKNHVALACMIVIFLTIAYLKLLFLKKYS
Nature of the series: cell-based.
Protocol: (§4) The method was adapted from Eneroth et al. [27] and Korjamo et al. [28] with minor modifications. Briefly, each cell line was seeded into a black Cultureplate (PerkinElmer) 96/wells plate with 100 μl medium and allowed to become confluent overnight. Test compounds were solubilized in 100 μl of culture medium and added. […] In treated wells the increase of fluorescence as compared to basal level was measured. The half maximal effective concentration (EC50) values were determined by fitting the fluorescence increase percentage versus log[dose]

Series [2] has as its system UMUC-3- CX. Nature of the series: Cell anti-proliferative effect (MTT test). Format: cell-based, human. To be noted: for EC50: Homo sapiens, read-out: EC50 antiproliferative effect. Here is the method: (§1) UMUC-3, 5637, TCC sup cells and J82 (ATCC, Manassas, VA, USA), derived from human transitional cell carcinoma of the bladder, were routinely cultured in MEM supplemented with 10% fetal bovine serum, 2 mM glutamine, 100 U/mL penicillin, 100 μg/mL streptomycin, 1X NEAA and 1 mM sodium pyruvate. All components were purchased form Invitrogen Corportion (Cergy Pontoise, France), in a humidified incubator at 37°C with a 5% CO2 atmosphere. Caco-2 (IRCCS “S. De Bellis”, Castellana Grotte, Italy), MDCK-MDR1, MDCK-MRP1 (gift of Prof. P. Borst, NKI-AVL Institute, Amsterdam, Netherlands) and MDCK-BCRP cells (gift of Dr. A. Schinkel, NKI-AVL Institute, Amsterdam, Netherlands) were grown in DMEM medium with 10% heat-inactivated fetal calf serum, 100 U/mL penicillin, 100 μg/mL streptomycin and 2 mM L-glutamine (Invitrogen) in a humidified incubator at 37°C with a 5% CO2 atmosphere. The cells were trypsinized twice a week with trypsin/ethylenediaminetetraacetic acid (EDTA) (0.05%/0.02%) and the medium was changed twice a week.
The pSG5-COX-2 plasmid, which contains a full-length human COX-2 cDNA in the pSG expression vector [23], was used for COX-2 transfection. The plasmid DNA was introduced into UMUC-3 cells using Lipofectamine LTX (Invitrogen). Briefly, 2.5 μg of plasmid DNA and 6.25 μl of Lipofectamine LTX were combined in 500 μl of OpTI-MEM*I reduced serum medium (Invitrogen) and allowed to stand at room temperature for 30 minutes. UMUC-3 cells were plated at 1X105 cells/well in six-well plates. After overnight attachment, the Lipofectamine mixture was applied to cells. After 5 hours of transfection, the medium was removed and complete medium was added. After 48 hours, geneticin G418 (Invitrogen) was added to cells at a concentration of […]. Cell lines were obtained from individual colonies using cloning cylinders. UMUC-3-CX overexpressing cells were obtained and were continuously cultured in complete medium with the addition of 800 μg/ml G418.
(§2) Afterwords, 10 μl of 3-[4,5-dimethylthiazol-2-yl]-2,5-diphenyltetrazoliumbromide (MTT) freshly prepared solution (5 mg/ml in PBS) (Sigma) was added in each well, and the plate was incubated in a humidified atmosphere 5% CO2 at 37° for 3–4 h. MTT solution was removed and 200 μL of EtOH/DMSO (1:1) was added to each well to dissolve the blue formazan solid crystals. The optical density was measured at 570 nm and 650 nm wavelenghts using Victor3 (PerkinElmer, Waltham, MA, USA). The results are expressed as EC50 values, obtained from non-linear iterative curve fitting by Prism v.3.0, GraphPad software (GraphPad Software, Inc. San Diego, USA).
For orientation: Formazan colour is commonly taken as a measure of viable cells.

Series [3] addresses MRP1 (Homo sapiens, UniProt P33527). Description: cell-based.
Protocol: as §4
For series [4], the system named is UMUC-3 cells. Nature of the series: Intracellular mitomycin C accumulation (flow cytometry). To be noted: UMUC-3, 1 day celecoxib then 1 day MMC and celecoxib. Format: cell-based, human. On the procedure:
(§3) After incubation, the cell medium was removed and trypsin/EDTA was used to detach the cells from the plates. Cells were harvested, washed twice in ice-cold PBS (pH 7.4), and placed on ice (<1 hour) until analysis. Analysis was performed using a 530/30 filter (FL1-H [height of fluorescence intensity]). Fluorescence measurements of individual cells were done with a Becton Dickinson FACScan equipped with an […] argon laser. Analysis was gated to include single cells, based on forward and side light scatter, and was based on the acquisition of data from 10,000 cells.

For series [5], the system named is UMUC-3-CX cells. The description is as above. Format: cell-based, human. To be noted: 1 day celecoxib then 1 day MMC and celecoxib. On the procedure: as §3
The test system of series [6] is Caco-2 cells. Nature of the series: Cell ATP availability assay. It counts as cell-based.
Protocol: Caco-2 cells were seeded into 96-well microplate in 100 μL of complete medium at a density 2×10^4 cells/well. The plate was incubated O/N in a humidified atmosphere (5% CO2 at 37°C). The medium was removed and 100 μL of complete medium were added, in the presence or absence of different concentrations of test compounds. The plate was again incubated for 2 h in a humidified atmosphere. Then, 50 μl of mammalian cell lysis solution were added to all wells and the plate stirred for 5 min in an orbital shaker. In all wells, 50 μl of substrate solution were added, and the plate stirred for 5 min as above reported. The plate was dark adapted for 10 min and the luminescence measured in Victor3 (PerkinElmer) [26].
Series [7] relates to 5637 si-CX. Nature of the series: Cell anti-proliferative effect (MTT test). To be noted: Homo sapiens, 48 h, read-out: EC50 antiproliferative effect. Format: cell-based. On the procedure: UMUC-3, 5637, TCC sup cells and J82 (ATCC, Manassas, VA, USA), derived from human transitional cell carcinoma of the bladder, were routinely cultured in MEM supplemented with 10% fetal bovine serum, 2 mM glutamine, 100 U/mL penicillin, 100 μg/mL streptomycin, 1X NEAA and 1 mM sodium pyruvate. All components were purchased form Invitrogen Corportion (Cergy Pontoise, France), in a humidified incubator at 37°C with a 5% CO2 atmosphere. Caco-2 (IRCCS “S. De Bellis”, Castellana Grotte, Italy), MDCK-MDR1, MDCK-MRP1 (gift of Prof. P. Borst, NKI-AVL Institute, Amsterdam, Netherlands) and MDCK-BCRP cells (gift of Dr. A. Schinkel, NKI-AVL Institute, Amsterdam, Netherlands) were grown in DMEM medium with 10% heat-inactivated fetal calf serum, 100 U/mL penicillin, 100 μg/mL streptomycin and 2 mM L-glutamine (Invitrogen) in a humidified incubator at 37°C with a 5% CO2 atmosphere. […]
Afterwords, 10 μl of 3-[4,5-dimethylthiazol-2-yl]-2,5-diphenyltetrazoliumbromide (MTT) freshly prepared solution (5 mg/ml in PBS) (Sigma) was added in each well, and the plate was incubated in a humidified atmosphere 5% CO2 at 37° for 3–4 h. […] The optical density was measured at 570 nm and 650 nm wavelenghts using Victor3 (PerkinElmer, Waltham, MA, USA). The results are expressed as EC50 values, obtained from non-linear iterative curve fitting by Prism v.3.0, GraphPad software (GraphPad Software, Inc. San Diego, USA).

In series [8] the target is P-gp (Homo sapiens, UniProt P08183). Description: Drug transport experiment, Caco-2 monolayer apparent permeability. Format: in vitro ADME. A general note: Passage across Caco-2 layers is used to estimate intestinal permeability.
Chain of P-gp (P08183 whole entry): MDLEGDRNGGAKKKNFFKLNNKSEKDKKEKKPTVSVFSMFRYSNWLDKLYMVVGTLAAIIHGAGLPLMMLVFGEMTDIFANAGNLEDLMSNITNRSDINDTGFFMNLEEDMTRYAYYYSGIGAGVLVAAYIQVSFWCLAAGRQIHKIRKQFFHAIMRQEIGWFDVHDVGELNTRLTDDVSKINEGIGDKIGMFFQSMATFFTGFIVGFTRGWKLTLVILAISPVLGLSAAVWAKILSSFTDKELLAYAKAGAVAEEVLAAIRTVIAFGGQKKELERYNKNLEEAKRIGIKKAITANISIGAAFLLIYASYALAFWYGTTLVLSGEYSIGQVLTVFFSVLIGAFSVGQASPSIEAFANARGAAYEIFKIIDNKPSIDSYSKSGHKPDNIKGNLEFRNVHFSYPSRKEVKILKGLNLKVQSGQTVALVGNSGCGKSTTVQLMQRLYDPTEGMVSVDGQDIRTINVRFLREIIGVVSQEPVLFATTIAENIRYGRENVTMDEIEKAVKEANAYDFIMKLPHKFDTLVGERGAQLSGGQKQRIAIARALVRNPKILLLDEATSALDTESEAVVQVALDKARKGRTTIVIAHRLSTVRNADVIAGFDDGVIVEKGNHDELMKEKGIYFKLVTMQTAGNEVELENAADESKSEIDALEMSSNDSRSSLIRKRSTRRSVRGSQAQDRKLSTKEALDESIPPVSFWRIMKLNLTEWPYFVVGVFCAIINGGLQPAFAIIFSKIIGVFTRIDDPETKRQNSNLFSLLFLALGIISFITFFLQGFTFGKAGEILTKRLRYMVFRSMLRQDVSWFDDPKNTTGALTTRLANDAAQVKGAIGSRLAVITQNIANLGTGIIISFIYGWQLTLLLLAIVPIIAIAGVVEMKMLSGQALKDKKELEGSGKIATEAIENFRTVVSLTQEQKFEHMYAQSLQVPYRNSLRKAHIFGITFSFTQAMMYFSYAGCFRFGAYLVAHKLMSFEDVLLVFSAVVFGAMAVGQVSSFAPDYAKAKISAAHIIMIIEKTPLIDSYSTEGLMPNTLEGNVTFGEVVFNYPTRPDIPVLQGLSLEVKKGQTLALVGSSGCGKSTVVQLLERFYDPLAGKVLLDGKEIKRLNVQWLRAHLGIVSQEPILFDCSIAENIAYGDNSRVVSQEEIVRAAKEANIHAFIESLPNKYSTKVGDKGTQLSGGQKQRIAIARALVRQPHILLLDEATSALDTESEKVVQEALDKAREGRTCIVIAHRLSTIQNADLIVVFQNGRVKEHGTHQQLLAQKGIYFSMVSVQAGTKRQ
In series [9] the test system is J82. Nature of the series: Cell anti-proliferative effect (MTT test). It counts as cell-based. To be noted: Homo sapiens, read-out: EC50 antiproliferative effect. On the procedure:
as §1, §2

Series [10] relates to 5637. Description: Cell anti-proliferative effect (MTT test). Format: cell-based. To be noted: Homo sapiens, 48 h, read-out: EC50 antiproliferative effect. On the procedure: as §1, §2
Series [11] has as its system UMUC3. Description: Cell anti-proliferative effect (MTT test). It counts as cell-based. To be noted: Homo sapiens, read-out: EC50 antiproliferative effect. On the procedure: as §1, §2
The subject of series [12] is TCC sup. Nature of the series: Cell anti-proliferative effect (MTT test). Format: cell-based. To be noted: Homo sapiens, 48 h, read-out: EC50 antiproliferative effect. On the procedure: as §1, §2

Structures are written as SMILES. Read-outs that look alike come from different tables or passages of the source.

Chain of MRP1 (P33527 whole entry): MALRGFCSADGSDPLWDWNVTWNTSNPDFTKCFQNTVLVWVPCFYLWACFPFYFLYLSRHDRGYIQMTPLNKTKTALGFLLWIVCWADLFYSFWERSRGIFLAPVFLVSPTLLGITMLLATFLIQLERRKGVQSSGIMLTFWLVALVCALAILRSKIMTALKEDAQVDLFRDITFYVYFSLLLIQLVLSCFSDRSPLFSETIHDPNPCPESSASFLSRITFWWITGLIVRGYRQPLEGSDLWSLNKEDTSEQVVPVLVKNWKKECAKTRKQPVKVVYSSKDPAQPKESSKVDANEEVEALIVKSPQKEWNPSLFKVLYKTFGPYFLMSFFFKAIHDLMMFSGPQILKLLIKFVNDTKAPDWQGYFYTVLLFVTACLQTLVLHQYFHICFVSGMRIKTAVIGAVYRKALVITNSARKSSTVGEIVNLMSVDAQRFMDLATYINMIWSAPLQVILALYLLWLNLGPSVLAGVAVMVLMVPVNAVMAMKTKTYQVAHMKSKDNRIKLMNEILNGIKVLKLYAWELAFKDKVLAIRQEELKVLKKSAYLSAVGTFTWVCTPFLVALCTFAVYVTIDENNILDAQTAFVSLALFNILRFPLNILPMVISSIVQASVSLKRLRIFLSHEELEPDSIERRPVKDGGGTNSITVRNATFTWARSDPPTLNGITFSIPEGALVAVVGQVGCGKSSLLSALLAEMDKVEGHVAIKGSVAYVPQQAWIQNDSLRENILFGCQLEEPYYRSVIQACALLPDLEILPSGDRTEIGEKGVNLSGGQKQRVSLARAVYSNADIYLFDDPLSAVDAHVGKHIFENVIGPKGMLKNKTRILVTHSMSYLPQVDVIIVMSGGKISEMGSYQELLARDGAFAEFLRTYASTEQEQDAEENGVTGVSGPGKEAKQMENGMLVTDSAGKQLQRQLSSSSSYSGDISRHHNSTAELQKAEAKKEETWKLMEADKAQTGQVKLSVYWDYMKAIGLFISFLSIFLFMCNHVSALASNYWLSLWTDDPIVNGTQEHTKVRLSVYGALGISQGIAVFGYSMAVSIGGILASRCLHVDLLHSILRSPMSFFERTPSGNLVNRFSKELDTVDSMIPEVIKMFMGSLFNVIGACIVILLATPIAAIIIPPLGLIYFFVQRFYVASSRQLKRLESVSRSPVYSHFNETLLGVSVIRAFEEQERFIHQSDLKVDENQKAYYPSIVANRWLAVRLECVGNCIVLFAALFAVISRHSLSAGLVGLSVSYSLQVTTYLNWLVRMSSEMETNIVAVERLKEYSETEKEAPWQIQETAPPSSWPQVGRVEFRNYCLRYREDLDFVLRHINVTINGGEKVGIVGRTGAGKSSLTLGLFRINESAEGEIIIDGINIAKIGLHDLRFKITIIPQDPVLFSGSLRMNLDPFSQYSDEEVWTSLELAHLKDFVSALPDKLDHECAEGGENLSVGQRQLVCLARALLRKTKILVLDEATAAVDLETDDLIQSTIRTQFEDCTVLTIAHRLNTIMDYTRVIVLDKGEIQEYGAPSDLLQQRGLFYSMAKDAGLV

As a reminder, the EC50 is the concentration that produces a half-maximal response. What is called Papp A→B is how fast a substance crosses the layer from the apical side. By Papp B→A is commonly meant how fast a substance crosses the layer from the basolateral side. Consider `Cc1ccc(-c2cc(C(F)(F)F)nn2-c2ccc(S(N)(=O)=O)cc2)cc1` [Celecoxib, celecoxib], for which the EC50 was 24.1 ± 1.2 µM in [1]; 16.3 ± 0.8 µM in [2] (UMUC3, 48 h); 10.1 ± 0.5 µM in series [3]; above 50 µM in series [7]; 11.6 ± 0.31 µM in series [9] (J82, 48 h); above 50 µM in series [10]. For the same compound, the concentration giving a half-maximal response (EC50) in series [11] (UMUC3, 48 h) was determined as 14.2 ± 0.7 µM; in [12] (TCC-SUP) it was 15.7 ± 0.5 µM. The figures for the “Effect on MMC intracellular accumulation” value in series [4] and in series [5] were “not seen” and “increase of intracellular MMC concentration”, respectively. For the same compound, in series [6], the ATP cell depletion result is “decreased ATP levels in a time- and dose-dependent fashion”. Besides, the “Classification of P-gp interaction (Polli's classification)” value in series [8] (from drug transport, substrate transport inhibition and ATP cell depletion assays combined) was “P-gp unambiguous substrate”. The Papp A→B at 120 min, 100 µM in [8] (human, Caco-2 monolayer, apical-basolateral flux, 120 min) was 13.7 ×10⁻⁶ cm/s. In series [8] (human, Caco-2 monolayer, basolateral-apical flux, 120 min), the Papp B→A at 120 min, 100 µM is 103 ×10⁻⁶ cm/s.
On to `CO[C@@]12[C@H](COC(N)=O)C3=C(C(=O)C(C)=C(N)C3=O)N1C[C@@H]1N[C@@H]12` [Mitomycin C], for which the 50% effective concentration (EC50) amounted to 13 ± 1 µM in [2] (UMUC3, UMUC-3-CX, compound alone, 48 h); 0.62 ± 0.05 µM in series [7] (5637 si-CX, compound alone); 0.64 ± 0.09 µM in [9] (J82, compound alone, 48 h); 0.93 ± 0.04 µM in series [10] (5637, compound alone); 1.69 ± 0.09 µM in series [11] (UMUC3, compound alone, 48 h); 0.83 ± 0.07 µM in series [12] (TCC sup, compound alone). Moreover, the “Fold improvement of MMC anti-proliferative activity by co-administration of celecoxib compared to MMC alone” value in series [2] (UMUC-3-CX, celecoxib 1 μM, 5 μM and 10 μM, 48 h, listed as MMC) is reported as 2–3 fold. The “Anti-proliferative effect of MMC alone, fold greater in UMUC-3 than in UMUC-3-CX” value in series [2] (UMUC-3 versus UMUC-3-CX, 48 h) worked out at 8 fold.
